Experiments:
Aminopeptidase N = target: T1, Aminopeptidase N (Sus scrofa, UniProt P15145); assay: Inhibition of porcine kidney microsomal aminopeptidase N using L-Leu-p-nitroanilide as substrate pre-incubated for 30 mins prior substrate addition by UV-VIS spectrophotometry
T1 sequence (P15145 whole entry): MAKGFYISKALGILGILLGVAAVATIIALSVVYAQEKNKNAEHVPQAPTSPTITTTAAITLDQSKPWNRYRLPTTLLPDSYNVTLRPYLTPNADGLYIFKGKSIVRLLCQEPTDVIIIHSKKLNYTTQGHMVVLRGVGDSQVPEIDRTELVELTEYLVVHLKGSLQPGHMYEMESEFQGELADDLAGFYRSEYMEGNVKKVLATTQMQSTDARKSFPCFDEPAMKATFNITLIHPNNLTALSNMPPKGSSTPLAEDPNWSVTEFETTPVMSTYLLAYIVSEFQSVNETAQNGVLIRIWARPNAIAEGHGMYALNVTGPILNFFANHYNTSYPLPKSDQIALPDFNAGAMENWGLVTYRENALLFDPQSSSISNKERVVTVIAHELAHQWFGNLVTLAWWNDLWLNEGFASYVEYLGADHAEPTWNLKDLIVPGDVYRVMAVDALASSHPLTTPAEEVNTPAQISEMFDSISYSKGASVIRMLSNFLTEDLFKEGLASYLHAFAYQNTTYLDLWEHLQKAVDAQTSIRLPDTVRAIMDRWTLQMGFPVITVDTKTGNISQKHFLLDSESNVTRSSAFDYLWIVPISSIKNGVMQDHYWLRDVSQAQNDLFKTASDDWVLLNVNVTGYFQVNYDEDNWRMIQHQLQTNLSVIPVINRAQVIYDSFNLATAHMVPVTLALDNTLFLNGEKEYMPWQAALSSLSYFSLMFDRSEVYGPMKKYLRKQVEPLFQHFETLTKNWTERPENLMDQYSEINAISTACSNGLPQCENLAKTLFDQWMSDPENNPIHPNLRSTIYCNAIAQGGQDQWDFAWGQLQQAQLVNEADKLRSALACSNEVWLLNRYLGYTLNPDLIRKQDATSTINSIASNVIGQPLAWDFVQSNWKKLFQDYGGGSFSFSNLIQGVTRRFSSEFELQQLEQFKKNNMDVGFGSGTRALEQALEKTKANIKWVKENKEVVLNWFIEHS

[1] = target: T2, Aminopeptidase N (Sus scrofa) (UniProt P15145); assay: Ratio of bestatin IC50 to compound IC50 for porcine kidney microsomal aminopeptidase N
T2 sequence (whole entry): T1 sequence (P15145 whole entry)

H22 = assay: Antimetastatic activity against […] H22 cells xenografted in mouse assessed as inhibition of metastasized nodes on lung surface dosed orally 6 days/week for 2 weeks; type: functional
HL-60 = assay: Antiproliferative activity against human HL60 cells after 48 hrs by MTT assay; type: functional, cell-based; settings: HL-60, 48 h

Compound	IC50 (Aminopeptidase N) [nM]	also measured
CC(C)C[C@H](NC(=O)[C@@H](O)[C@H](N)Cc1ccccc1)C(=O)N1CCC[C@H]1C(=O)N1CCC[C@H]1C(=O)O	–	Ratio IC50 [1]: 50
N[C@@H](Cc1ccc(O)cc1)C(=O)N[C@H]1CC(=O)N(CC(=O)NO)C1=O	1000	–
CC(C)C[C@H](NC(=O)[C@@H](O)[C@H](N)Cc1ccccc1)C(=O)O [UBENIMEX]	–	inhibition (INH) (H22): 45.37%
Cl.N[C@@H](Cc1ccccc1)C(=O)N[C@H]1CC(=O)N(CC(=O)NO)C1=O	1000	IC50 (HL-60): 149000 nM; inhibition (INH) (H22): 54.21%; Ratio IC50 [1]: 2.4
CC(C)C[C@H](N)C(=O)N[C@H]1CC(=O)N(CC(=O)NO)C1=O	1000	–
O=C(CN1C(=O)C[C@H](NC(=O)[C@@H]2CCCN2)C1=O)NO	1000	–

The next lines start with results.

IC50 (Aminopeptidase N) [nM]	Compound	also measured
1000	CC(C)[C@H](N)C(=O)N[C@H]1CC(=O)N(CC(=O)NO)C1=O	–
1000	NCCCC[C@H](N)C(=O)N[C@H]1CC(=O)N(CC(=O)NO)C1=O	–
1000	C[C@H](N)C(=O)N[C@H]1CC(=O)N(CC(=O)NO)C1=O	–
1000	NCC(=O)N[C@H]1CC(=O)N(CC(=O)NO)C1=O	–
1000	CC[C@@H](C)[C@H](N)C(=O)N[C@H]1CC(=O)N(CC(=O)NO)C1=O	–

Reference: ChEMBL document CHEMBL1938367, “Novel potent 2,5-pyrrolidinedione peptidomimetics as aminopeptidase N inhibitors. Design, synthesis and activity evaluation” (Bioorg Med Chem Lett, 2012)
